Experiments:
[1] = biological target: T1, cytokinin receptor CRE1 (transformed cell TM182-CRE1) (Arabidopsis thaliana, UniProt Q9C5U0, S567G/T1018A); settings: DOLU+Gul agar, concentrations 1 nM to 100 μM, 30° C., 30 hours
Experimental: (§1) After incubation, the growth state of the transformed cells was observed and photographed by a digital camera.
(§2) The lowest supply concentrations of trans-zeatin and cis-zeatin in which the respective transformed cells could be grown were shown in Table 1.

[2] = biological target: T2, cytokinin receptor AHK2 Δ (transformed cell TM182-AHK2 Δ) (Arabidopsis thaliana, UniProt Q9C5U2); settings: DOLU+Gul agar, concentrations 1 nM to 100 μM, 30° C., 30 hours
T2 sequence (Q9C5U2 196-1176): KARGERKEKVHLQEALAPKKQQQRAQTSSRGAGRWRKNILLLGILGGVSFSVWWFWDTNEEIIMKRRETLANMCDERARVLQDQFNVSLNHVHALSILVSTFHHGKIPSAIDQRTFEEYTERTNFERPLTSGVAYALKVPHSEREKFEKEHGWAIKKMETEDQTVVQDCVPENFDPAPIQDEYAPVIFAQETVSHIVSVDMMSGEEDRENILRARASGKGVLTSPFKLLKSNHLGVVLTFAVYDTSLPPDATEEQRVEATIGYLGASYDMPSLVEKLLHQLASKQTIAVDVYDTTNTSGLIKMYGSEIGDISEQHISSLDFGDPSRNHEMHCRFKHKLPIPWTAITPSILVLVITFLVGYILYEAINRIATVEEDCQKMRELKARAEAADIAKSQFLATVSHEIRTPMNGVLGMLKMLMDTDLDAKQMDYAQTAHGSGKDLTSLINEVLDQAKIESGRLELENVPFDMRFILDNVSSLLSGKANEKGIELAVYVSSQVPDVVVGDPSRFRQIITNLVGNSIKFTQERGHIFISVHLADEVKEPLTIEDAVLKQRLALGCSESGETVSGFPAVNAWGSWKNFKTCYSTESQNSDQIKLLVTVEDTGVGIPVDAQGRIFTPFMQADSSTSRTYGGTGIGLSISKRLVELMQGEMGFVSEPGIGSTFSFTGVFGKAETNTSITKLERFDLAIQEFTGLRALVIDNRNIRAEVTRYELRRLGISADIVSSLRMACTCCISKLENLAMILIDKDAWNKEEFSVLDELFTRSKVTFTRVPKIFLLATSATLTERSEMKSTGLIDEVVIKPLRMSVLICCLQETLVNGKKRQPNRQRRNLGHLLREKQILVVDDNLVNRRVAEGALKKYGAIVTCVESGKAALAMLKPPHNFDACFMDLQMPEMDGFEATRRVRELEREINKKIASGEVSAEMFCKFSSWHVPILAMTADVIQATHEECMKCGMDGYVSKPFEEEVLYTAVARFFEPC
Experimental: as §1, §2

[3] = biological target: T3, cytokinin receptor AHK2 (transformed cell TM182-AHK2) (Arabidopsis thaliana, UniProt Q9C5U2); settings: DOLU+Gul agar containing 10 μM trans-zeatin, 30° C., 30 hours; compared with media containing no trans-zeatin
T3 sequence (Q9C5U2 1-1176): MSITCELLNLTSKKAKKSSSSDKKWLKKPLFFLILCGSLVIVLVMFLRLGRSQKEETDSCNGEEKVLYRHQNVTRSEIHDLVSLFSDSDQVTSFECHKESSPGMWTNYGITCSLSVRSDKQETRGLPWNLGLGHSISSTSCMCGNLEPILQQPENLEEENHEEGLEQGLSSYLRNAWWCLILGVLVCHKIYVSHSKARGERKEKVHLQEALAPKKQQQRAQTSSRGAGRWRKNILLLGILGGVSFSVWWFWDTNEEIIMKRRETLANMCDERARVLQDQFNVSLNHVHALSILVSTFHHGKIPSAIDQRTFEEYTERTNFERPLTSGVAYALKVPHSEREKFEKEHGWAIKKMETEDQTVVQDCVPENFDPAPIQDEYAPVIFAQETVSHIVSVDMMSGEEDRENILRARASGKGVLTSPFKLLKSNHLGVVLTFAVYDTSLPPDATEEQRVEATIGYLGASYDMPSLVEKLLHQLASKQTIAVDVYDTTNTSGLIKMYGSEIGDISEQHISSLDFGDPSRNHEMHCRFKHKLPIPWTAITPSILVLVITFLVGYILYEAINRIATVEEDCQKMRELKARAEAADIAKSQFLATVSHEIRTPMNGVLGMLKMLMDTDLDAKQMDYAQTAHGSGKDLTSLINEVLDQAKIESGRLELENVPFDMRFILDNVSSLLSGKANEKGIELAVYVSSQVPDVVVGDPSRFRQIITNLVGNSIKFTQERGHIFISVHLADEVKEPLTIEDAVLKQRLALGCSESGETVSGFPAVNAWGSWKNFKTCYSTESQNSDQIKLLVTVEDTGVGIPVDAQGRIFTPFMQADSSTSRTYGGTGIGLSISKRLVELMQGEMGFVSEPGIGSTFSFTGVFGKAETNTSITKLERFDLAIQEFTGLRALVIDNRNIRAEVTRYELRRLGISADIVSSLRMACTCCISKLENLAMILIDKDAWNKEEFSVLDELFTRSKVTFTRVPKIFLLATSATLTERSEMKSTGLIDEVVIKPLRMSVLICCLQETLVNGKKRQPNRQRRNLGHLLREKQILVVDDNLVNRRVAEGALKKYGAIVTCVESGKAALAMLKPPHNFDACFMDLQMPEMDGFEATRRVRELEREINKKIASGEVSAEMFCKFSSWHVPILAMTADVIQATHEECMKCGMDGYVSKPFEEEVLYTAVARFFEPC
Experimental: (§3) Transformation of TM182 (S1n1 Δ), S1n1 genetically detected strain, [Maeda T et al. Nature: 369 242-245 (1994)] was carried out using the obtained expression plasmid p415CYC-CRE1 (the example 5), p415CYC-AHK2 (the example 11), p415CYC-AHK2Δ (the example 11) and p415CYC-AHK3 (the example 8). The transformation was carried out by employing Polyethylene glycol/lithium acetate (PEG/LiAc)-mediated transformation method according to the description of VII. Library Transformation & Screening Protocols disclosed in […] Two-Hybrid System 3 User Manual p.
as §1

[4] = biological target: T4, cytokinin receptor AHK3 (transformed cell TM182-AHK3) (Arabidopsis thaliana, UniProt Q9C5U1); settings: DOLU+Gul agar containing 10 μM trans-zeatin, 30° C., 30 hours; compared with media containing no trans-zeatin
T4 sequence (Q9C5U1 1-1036): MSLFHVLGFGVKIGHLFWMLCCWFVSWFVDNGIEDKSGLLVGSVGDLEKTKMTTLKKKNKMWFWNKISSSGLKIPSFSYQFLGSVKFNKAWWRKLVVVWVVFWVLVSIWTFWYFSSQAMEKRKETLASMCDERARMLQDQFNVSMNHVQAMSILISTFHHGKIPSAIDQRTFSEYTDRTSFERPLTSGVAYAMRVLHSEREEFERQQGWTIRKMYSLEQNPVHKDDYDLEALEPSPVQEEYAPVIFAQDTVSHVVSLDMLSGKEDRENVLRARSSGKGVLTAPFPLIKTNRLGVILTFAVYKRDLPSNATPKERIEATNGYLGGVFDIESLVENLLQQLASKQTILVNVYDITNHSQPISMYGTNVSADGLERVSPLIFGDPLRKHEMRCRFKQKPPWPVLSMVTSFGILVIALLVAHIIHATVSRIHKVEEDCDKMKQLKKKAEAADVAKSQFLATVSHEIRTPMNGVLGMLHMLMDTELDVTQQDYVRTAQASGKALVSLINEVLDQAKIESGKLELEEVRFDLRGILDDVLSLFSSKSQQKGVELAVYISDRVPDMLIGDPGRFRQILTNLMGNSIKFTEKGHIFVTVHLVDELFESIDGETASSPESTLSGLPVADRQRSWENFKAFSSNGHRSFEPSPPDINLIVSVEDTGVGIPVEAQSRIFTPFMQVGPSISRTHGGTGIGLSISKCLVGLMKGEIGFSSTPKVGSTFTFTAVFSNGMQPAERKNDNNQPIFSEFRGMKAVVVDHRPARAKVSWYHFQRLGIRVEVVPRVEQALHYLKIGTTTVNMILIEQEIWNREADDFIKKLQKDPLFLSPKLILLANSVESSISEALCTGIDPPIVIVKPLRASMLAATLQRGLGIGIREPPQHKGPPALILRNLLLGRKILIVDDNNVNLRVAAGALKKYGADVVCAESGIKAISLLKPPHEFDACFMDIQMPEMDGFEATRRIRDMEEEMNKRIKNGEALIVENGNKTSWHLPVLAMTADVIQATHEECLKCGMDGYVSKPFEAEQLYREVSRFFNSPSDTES
Experimental: as §3, §1

[5] = biological target: T1, cytokinin receptor CRE1 (transformed cell TM182-CRE1); settings: DOLU+Gul agar containing 10 μM trans-zeatin, 30° C., 30 hours; compared with media containing no trans-zeatin
Experimental: as §3, §1

[6] = biological target: T2, cytokinin receptor AHK2 Δ (transformed cell TM182-AHK2 Δ); settings: DOLU+Gul agar containing 10 μM trans-zeatin, 30° C., 30 hours; compared with media containing no trans-zeatin
Experimental: as §3, §1

[7] = biological target: T3, cytokinin receptor AHK2 (transformed cell TM182-AHK2); settings: DOLU+Gul agar, concentrations 1 nM to 100 μM, 30° C., 30 hours
Experimental: as §1, §2

[8] = biological target: T2, cytokinin receptor AHK2 Δ (transformed cell TM182-AHK2 Δ); test: Searching agonist-activity to cytokinin receptor (Part 1), optical density of liquid culture; type: cell-based; set-up: one added initiator methionine (ATG added 5' of codon 196) (N); expressed in transfected cells; host or cells: Saccharomyces cerevisiae TM182 (sln1 deletion), plasmid p415CYC-AHK2 Δ; settings: examinee substance 100 μM final concentration, DOLU+Gul medium, 30° C., 24 hours; DMSO blank 0
Experimental: The transformed cells TM182-CRE1, TM182-AHK2, TM182-AHK2 Δ and TM182-AHK3 produced in the example 12 were inoculated in 200 ml of DOLU+Gal culture media and pre-cultured at 30° C. for 36 hours. The pre-cultured solutions were diluted with DOLU+Gul media as to become 0.100 as the optical density (0D600) and further the resultants were diluted with DOLU+Gul media at a dilution rate of 1/200 to obtain diluted pre-cultured solutions.
An assay plate was prepared by filling respective wells of a 96-well plate with 20 μl of solutions which were prepared by diluting DMSO solution (10 mM) of each examinee substance with DOLU+Gul medium at a dilution rate of 1/100, said solutions containing each examinee substance to be 100 μM at the final concentration. […]
The diluted pre-cultured solutions were added in 200 μl each into the respective wells of both assay plates and cultured at 30° C. for 24 hours and then the optical density (0D620) of each well was measured by a plate reader. The agonist-activity of the examinee substances to the cytokinin receptor was detected by comparing the optical density measured in the testing sections to which the examinee substances were added with the optical density measured in the blank sections.

T1 sequence (Q9C5U0 24-1080 S567G/T1018A): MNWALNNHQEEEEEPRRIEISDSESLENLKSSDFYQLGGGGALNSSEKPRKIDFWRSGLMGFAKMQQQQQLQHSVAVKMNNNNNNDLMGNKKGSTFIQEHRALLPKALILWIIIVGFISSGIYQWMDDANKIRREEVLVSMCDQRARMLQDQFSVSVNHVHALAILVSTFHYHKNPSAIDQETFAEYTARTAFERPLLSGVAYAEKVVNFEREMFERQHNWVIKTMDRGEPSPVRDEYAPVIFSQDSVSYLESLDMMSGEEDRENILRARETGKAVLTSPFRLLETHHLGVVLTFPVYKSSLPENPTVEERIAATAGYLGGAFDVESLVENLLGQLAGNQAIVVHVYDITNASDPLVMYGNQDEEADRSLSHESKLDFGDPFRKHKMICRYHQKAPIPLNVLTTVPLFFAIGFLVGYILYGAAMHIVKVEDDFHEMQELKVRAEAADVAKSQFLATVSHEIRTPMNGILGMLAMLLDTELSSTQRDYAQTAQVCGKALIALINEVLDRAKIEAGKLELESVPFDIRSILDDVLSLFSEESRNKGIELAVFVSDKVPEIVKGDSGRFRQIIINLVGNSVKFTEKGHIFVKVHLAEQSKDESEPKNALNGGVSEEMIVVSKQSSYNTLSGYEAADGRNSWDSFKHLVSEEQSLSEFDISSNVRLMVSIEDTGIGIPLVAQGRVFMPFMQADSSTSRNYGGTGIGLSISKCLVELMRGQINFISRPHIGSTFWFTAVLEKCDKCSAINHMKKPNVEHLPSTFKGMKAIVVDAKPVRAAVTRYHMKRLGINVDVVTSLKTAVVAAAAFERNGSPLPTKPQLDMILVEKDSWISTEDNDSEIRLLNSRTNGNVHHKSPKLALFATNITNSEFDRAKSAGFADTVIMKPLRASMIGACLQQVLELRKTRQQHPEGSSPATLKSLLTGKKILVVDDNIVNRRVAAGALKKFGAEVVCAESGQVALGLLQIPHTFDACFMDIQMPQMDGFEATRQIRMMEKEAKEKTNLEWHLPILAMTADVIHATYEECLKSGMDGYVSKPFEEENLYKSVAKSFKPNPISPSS

SMILES: C/C(=C/CNc1ncnc2nc[nH]c12)CO [cis-zeatin]
- lowest supply concentration in which the transformed cells could be grown, TM182-CRE1 [1]: no growth
- lowest supply concentration in which the transformed cells could be grown, TM182-AHK2 A [2]: 1 µM

SMILES: C/C(=C\CNc1ncnc2nc[nH]c12)CO [trans-zeatin]
- growth state of transformed cells TM182-AHK2 [3]: high growth
- growth state of transformed cells TM182-AHK3 [4]: high growth
- growth state of transformed cells TM182-CRE1 [5]: high growth
- growth state of transformed cells TM182-AHK2 Δ [6]: high growth
- lowest supply concentration in which the transformed cells could be grown, TM182-AHK2 [7]: 1 µM

SMILES: CC1=CC(=O)CC(C)(C)[C@@]1(O)/C=C/C(C)=C\C(=O)O [Compound A, Abscisic acid]
- optical density (OD620) of the culture solution, TM182-AHK2 Δ [8]: 0
